Values quoted from earlier work, collected in patent publication US20180021360A1, “Combination Therapy Regimen For Treatment Of Selected HCV Genotypes” (JANSSEN PHARMACEUTICALS, INC., priority 2016, published 2018).

Legend:
Conditions in all cases: cited from earlier work
BCRP = target: T1, BCRP (Homo sapiens, UniProt Q9UNQ0)
T1 sequence (Q9UNQ0 1-655): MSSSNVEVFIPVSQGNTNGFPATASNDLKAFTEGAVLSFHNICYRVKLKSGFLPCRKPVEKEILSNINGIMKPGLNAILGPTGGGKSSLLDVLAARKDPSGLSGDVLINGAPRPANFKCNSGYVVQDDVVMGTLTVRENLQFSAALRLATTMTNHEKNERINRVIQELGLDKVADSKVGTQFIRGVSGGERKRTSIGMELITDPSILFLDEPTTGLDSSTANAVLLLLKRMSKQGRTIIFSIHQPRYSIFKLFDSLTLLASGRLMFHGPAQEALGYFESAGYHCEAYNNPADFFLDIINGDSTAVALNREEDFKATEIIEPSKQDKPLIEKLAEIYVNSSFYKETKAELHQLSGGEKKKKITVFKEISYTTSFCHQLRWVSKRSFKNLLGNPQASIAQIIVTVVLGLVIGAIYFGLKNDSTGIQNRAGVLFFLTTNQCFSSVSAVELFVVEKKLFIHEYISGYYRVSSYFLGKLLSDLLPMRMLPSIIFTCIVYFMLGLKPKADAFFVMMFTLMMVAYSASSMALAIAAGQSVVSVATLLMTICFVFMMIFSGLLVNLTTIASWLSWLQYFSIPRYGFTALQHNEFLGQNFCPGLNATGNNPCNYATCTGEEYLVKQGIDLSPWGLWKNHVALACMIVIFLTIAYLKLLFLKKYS

BSEP = BSEP (Homo sapiens, UniProt O95342)
Chain of BSEP (O95342 whole entry): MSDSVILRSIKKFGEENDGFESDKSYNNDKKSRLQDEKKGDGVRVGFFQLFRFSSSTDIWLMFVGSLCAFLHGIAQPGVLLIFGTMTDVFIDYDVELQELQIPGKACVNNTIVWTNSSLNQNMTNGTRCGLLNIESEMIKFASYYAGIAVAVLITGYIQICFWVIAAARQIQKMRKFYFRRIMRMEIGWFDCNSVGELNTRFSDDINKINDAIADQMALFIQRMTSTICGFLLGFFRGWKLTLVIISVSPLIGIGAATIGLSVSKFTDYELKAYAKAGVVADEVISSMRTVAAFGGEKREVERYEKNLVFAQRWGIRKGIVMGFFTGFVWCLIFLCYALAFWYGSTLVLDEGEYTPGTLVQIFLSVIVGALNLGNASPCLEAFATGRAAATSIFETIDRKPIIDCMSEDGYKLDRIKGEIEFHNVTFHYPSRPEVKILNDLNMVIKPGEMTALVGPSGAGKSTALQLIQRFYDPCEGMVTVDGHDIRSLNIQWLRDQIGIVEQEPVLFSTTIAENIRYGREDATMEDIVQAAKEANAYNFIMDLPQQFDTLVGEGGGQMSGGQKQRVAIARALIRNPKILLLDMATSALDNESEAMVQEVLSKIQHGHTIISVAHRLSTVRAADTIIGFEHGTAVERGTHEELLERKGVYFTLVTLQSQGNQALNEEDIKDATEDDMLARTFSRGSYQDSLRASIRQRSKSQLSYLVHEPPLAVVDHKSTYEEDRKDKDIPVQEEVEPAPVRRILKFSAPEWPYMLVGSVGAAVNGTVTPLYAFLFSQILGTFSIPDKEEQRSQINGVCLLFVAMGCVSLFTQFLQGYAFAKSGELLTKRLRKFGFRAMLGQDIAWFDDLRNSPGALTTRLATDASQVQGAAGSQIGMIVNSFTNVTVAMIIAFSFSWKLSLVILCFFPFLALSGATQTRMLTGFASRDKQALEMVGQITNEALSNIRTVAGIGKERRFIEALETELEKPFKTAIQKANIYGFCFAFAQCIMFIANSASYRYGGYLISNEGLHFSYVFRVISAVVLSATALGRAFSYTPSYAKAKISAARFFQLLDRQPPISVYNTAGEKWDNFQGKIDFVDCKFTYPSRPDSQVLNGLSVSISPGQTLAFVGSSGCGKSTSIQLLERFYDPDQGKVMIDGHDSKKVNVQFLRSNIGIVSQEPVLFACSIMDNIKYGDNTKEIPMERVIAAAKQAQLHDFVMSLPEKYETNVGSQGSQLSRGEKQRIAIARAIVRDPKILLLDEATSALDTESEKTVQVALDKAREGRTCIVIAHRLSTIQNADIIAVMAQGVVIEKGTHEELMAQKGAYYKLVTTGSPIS

OATP1B1 = target: T2, OATP1B1 (Homo sapiens, UniProt Q9Y6L6)
T2 sequence (Q9Y6L6 1-691): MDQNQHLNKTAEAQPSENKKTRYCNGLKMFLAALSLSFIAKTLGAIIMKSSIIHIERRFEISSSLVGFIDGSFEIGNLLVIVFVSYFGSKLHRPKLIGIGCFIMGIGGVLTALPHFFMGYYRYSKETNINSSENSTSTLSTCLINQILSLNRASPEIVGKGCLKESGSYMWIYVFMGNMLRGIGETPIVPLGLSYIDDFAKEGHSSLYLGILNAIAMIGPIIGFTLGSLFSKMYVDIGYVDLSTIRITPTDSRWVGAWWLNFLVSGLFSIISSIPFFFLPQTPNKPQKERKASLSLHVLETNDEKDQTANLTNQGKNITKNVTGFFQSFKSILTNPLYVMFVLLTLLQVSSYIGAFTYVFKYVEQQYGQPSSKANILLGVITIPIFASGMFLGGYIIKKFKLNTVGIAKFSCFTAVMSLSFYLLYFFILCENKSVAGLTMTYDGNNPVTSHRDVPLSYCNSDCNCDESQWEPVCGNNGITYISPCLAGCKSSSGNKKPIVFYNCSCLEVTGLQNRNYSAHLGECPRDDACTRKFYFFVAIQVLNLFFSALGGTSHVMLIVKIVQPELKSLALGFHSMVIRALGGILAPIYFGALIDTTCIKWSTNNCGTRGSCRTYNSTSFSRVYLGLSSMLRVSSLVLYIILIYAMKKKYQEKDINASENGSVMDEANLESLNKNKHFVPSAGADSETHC

COC(=O)N[C@H](C(=O)N1[C@H](c2nc3cc(-c4cc5ccc4CCc4ccc(c(-c6ccc7[nH]c([C@@H]8C[C@@H]9CCCC[C@@H]9N8C(=O)[C@@H](NC(=O)OC)C(C)C)nc7c6)c4)CC5)ccc3[nH]2)C[C@@H]2CCCC[C@@H]21)C(C)C [Odalasvir, methyl [(2,)-1-[(2S,3aS,7aS)-2-[6-[11-[2-[(2S,3aS,7aS)-1-[(2S)-2-[(methoxycarbonyl)amino]-3-methylbutanoyl]octahydro-1H-indol-2-yl]-1H-benzimidazol-6-yl]tricyclo[8.2.2.2^4,7]hexadeca-1(12),4,6,10,13,15-hexaen-5-yl]-1H-benzimidazol-2-yl]octahydro-1H-indol-1-yl]-3-methyl-1-oxobutan-2-yl]carbamate]
no inhibition: in vitro inhibition of BCRP (BCRP) | in vitro inhibition of BSEP (BSEP) | in vitro inhibition of OATP1B1 (OATP1B1)
